Measured values taken from PubChem BioAssay (NCI).
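Results reflect a 48-hour exposure of cells in 96-well plates to compound at five concentrations. At the TGI there is no net growth.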

Columns and labels:
Assay in all cases: NCI anticancer screen, dose series, 48 h
HCC-2998 colon = system: HCC-2998 colon
SF-295 CNS = system: SF-295 CNS
NCI/ADR-RES ovarian = system: NCI/ADR-RES ovarian
SR leukemia = system: SR leukemia
MDA-N = system: MDA-N
KM12 colon = system: KM12 colon
IGROV1 ovarian = system: IGROV1 ovarian
NCI-H23 lung = system: NCI-H23 lung
LOX IMVI melanoma = system: LOX IMVI melanoma
A498 renal = system: A498 renal
UACC-257 melanoma = system: UACC-257 melanoma
K-562 leukemia = system: K-562 leukemia
HOP-92 NSCLC = system: HOP-92 NSCLC
OVCAR-3 ovarian = system: OVCAR-3 ovarian
SK-MEL-5 melanoma = system: SK-MEL-5 melanoma
SNB-19 CNS = system: SNB-19 CNS
SW-620 colon = system: SW-620 colon
T-47D breast = system: T-47D breast
HCT-116 colon = system: HCT-116 colon
786-0 renal = system: 786-0 renal
SK-MEL-2 melanoma = system: SK-MEL-2 melanoma
PC-3 prostate = system: PC-3 prostate
ACHN renal = system: ACHN renal
OVCAR-4 ovarian = system: OVCAR-4 ovarian
SNB-75 CNS = system: SNB-75 CNS
M14 melanoma = system: M14 melanoma
HT29 colon = system: HT29 colon
OVCAR-5 ovarian = system: OVCAR-5 ovarian
MDA-MB-435 = system: MDA-MB-435
U251 CNS = system: U251 CNS
UACC-62 melanoma = system: UACC-62 melanoma
OVCAR-8 ovarian = system: OVCAR-8 ovarian
EKVX NSCLC = system: EKVX NSCLC
A549 NSCLC = system: A549 NSCLC
TK-10 renal = system: TK-10 renal
HCT-15 colon = system: HCT-15 colon
SK-OV-3 ovarian = system: SK-OV-3 ovarian
CAKI-1 renal = system: CAKI-1 renal
RPMI-8226 leukemia = system: RPMI-8226 leukemia
MOLT-4 leukemia = system: MOLT-4 leukemia
COLO 205 colon = system: COLO 205 colon
UO-31 renal = system: UO-31 renal
MDA-MB-231 breast = system: MDA-MB-231 breast
SK-MEL-28 melanoma = system: SK-MEL-28 melanoma
SN12C renal = system: SN12C renal
NCI-H226 lung = system: NCI-H226 lung
HOP-62 NSCLC = system: HOP-62 NSCLC
CCRF-CEM leukemia = system: CCRF-CEM leukemia
NCI-H460 lung = system: NCI-H460 lung
DU-145 prostate = system: DU-145 prostate
MCF7 breast = system: MCF7 breast
NCI-H522 lung = system: NCI-H522 lung
HL-60(TB) leukemia = system: HL-60(TB) leukemia
RXF 393 renal = system: RXF 393 renal
HS 578T breast = system: HS 578T breast
SF-268 CNS = system: SF-268 CNS
BT-549 breast = system: BT-549 breast
SF-539 CNS = system: SF-539 CNS

Measured: TGI

CN(C(=O)C1=CCC2(CC1)OCCO2)c1ccccc1I
not listed: RXF 393 renal | HS 578T breast | SF-268 CNS | BT-549 breast | SF-539 CNS
> 100 µM: all other assays above

CC(=O)OCC(C)(COC(C)=O)N1C(=O)C2C3c4ccccc4C(c4ccccc43)C2C1=O (stereo not drawn)
not listed: HCC-2998 colon | NCI/ADR-RES ovarian | SK-MEL-2 melanoma | OVCAR-4 ovarian | SK-MEL-28 melanoma | SN12C renal | HOP-62 NSCLC | NCI-H522 lung
> 100 µM: all other assays above
